Here are results for 16 compounds from ChEMBL document CHEMBL3992518, “Peptide Macrocycle Inhibitor of Coagulation Factor XII with Subnanomolar Affinity and High Target Selectivity” (J Med Chem, 2017).

*1 amine or outer side, *2 acyl side, *3 side chain or, on linkers, in order; H or OH if unused. Where a SMILES comes first, the peptide text is derived from it. Bridges are numbered along the chain shown (N, C = ends). [ ]: non-standard residue; d: D form. TATA = O=C(CC[*:1])N1CN(C(=O)CC[*:2])CN(C(=O)CC[*:3])C1; hArg = N=C(N)NCCCC[C@H](N)C(=O)O; Agb = N=C(N)NCC[C@H](N)C(=O)O; hLeu = CC(C)CC[C@H](N)C(=O)O Bounds are passed on as bounds.

This assay has as its target T1, Coagulation factor XII (Homo sapiens, UniProt P00748).
T1 sequence (P00748 whole entry): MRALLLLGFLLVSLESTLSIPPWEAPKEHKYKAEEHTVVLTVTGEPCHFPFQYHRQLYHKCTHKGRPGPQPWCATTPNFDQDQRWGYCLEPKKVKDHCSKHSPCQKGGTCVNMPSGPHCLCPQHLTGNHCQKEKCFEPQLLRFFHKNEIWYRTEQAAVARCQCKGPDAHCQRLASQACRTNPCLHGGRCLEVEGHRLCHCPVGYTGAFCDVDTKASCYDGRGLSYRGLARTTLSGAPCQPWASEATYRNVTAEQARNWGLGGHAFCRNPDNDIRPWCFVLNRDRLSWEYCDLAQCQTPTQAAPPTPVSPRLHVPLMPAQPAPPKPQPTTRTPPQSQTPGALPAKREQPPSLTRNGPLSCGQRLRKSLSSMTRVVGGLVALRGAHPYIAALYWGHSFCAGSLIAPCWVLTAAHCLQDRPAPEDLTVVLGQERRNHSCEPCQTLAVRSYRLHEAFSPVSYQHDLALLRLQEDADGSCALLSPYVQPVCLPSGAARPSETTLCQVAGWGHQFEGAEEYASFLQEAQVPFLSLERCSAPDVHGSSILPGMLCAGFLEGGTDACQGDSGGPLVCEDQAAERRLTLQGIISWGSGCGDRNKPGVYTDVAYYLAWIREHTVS
Put plainly: Inhibition of human beta factor 12a using fluorogenic substrate Boc-Gln-Gly-Arg-AMC preincubated for 10 mins followed by addition of substrate measured every min for 30 mins.
Turning to `CC(C)C[C@@H]1NC(=O)[C@H](CCC(N)=O)NC(=O)[C@H](CCCNC(=N)N)NC(=O)[C@@H]2CSCCC(=O)N3CN(CN(C3)C(=O)CCSC[C@H](NC(=O)[C@@H](N)CCCNC(=N)N)C(=O)N[C@@H](Cc3ccccc3)C(=O)N[C@@H](CCCNC(=N)N)C(=O)N[C@@H](CC(C)C)C(=O)N3CCC[C@H]3C(=O)N2)C(=O)CCSC[C@@H](C(=O)N[C@@H](CCCNC(=N)N)C(=O)N[C@@H](Cc2c[nH]c3ccccc23)C(=O)O)NC(=O)[C@H](CCCNC(=N)N)NC1=O` (H-RCFRLPCRQLRCRW-OH; linker 2-7-12 via TATA), the inhibition constant Ki (in general, a measure of affinity in units of concentration, obtained from inhibition or displacement) came to 10.2 nM.

As to `CC(C)C[C@@H]1NC(=O)[C@H](CCC(N)=O)NC(=O)[C@H](CCCNC(=N)N)NC(=O)[C@@H]2CSCCC(=O)N3CN(CN(C3)C(=O)CCSC[C@H](NC(=O)[C@@H](N)CCCNC(=N)N)C(=O)N[C@@H](Cc3ccccc3)C(=O)N[C@@H](CCCCNC(=N)N)C(=O)N[C@@H](CC(C)C)C(=O)N3CCC[C@H]3C(=O)N2)C(=O)CCSC[C@@H](C(=O)N[C@@H](CCCNC(=N)N)C(=O)N[C@@H](Cc2c[nH]c3ccccc23)C(=O)O)NC(=O)[C@H](CCCNC(=N)N)NC1=O` (H-RCF[hArg]LPCRQLRCRW-OH; linker 2-7-12 via TATA), the Ki was found to be 71 nM.

In turn, `CC(C)C[C@@H]1NC(=O)[C@H](CCC(N)=O)NC(=O)[C@H](CCCNC(=N)N)NC(=O)[C@@H]2CSCCC(=O)N3CN(CN(C3)C(=O)CCSC[C@@H](C(=O)N[C@@H](CCCNC(=N)N)C(=O)O)NC(=O)[C@H](CCCNC(=N)N)NC1=O)C(=O)CCSC[C@H](NC(=O)[C@H](N)CCCNC(=N)N)C(=O)N[C@@H](Cc1ccccc1)C(=O)N[C@@H](CCCNC(=N)N)C(=O)N[C@@H](CC(C)C)C(=O)N1CCC[C@H]1C(=O)N2` registered an inhibition constant Ki of 34.4 nM.

In turn, `CC(C)C[C@@H]1NC(=O)[C@H](CC(N)=O)NC(=O)[C@H](CCCNC(=N)N)NC(=O)[C@@H]2CSCCC(=O)N3CN(CN(C3)C(=O)CCSC[C@H](NC(=O)[C@@H](N)CCCNC(=N)N)C(=O)N[C@@H](Cc3ccccc3)C(=O)N[C@@H](CCCNC(=N)N)C(=O)N[C@@H](CC(C)C)C(=O)N3CCC[C@H]3C(=O)N2)C(=O)CCSC[C@@H](C(=O)N[C@@H](CCCNC(=N)N)C(=O)N[C@@H](Cc2c[nH]c3ccccc23)C(=O)O)NC(=O)[C@H](CCCNC(=N)N)NC1=O` (H-RCFRLPCRNLRCRW-OH; linker 2-7-12 via TATA) registered an inhibition constant (Ki) of 1000 nM.

In turn, `CC(C)C[C@@H]1NC(=O)[C@H](CCC(N)=O)NC(=O)[C@H](CCCNC(=N)N)NC(=O)[C@@H]2CSCCC(=O)N3CN(CN(C3)C(=O)CCSC[C@H](NC(=O)[C@@H](N)CCCNC(=N)N)C(=O)N[C@@H](Cc3ccc(C(C)(C)C)cc3)C(=O)N[C@@H](CCCNC(=N)N)C(=O)N[C@@H](CC(C)C)C(=O)N3CCC[C@H]3C(=O)N2)C(=O)CCSC[C@@H](C(=O)N[C@@H](CCCNC(=N)N)C(=O)N[C@@H](Cc2c[nH]c3ccccc23)C(=O)O)NC(=O)[C@H](CCCNC(=N)N)NC1=O` gave an inhibition constant (Ki) of more than 1000 nM.

Regarding `CCC[C@@H]1NC(=O)[C@H](CCC(N)=O)NC(=O)[C@H](CCCNC(=N)N)NC(=O)[C@@H]2CSCCC(=O)N3CN(CN(C3)C(=O)CCSC[C@H](NC(=O)[C@@H](N)CCCNC(=N)N)C(=O)N[C@@H](Cc3ccccc3)C(=O)N[C@@H](CCCNC(=N)N)C(=O)N[C@@H](CC(C)C)C(=O)N3CCC[C@H]3C(=O)N2)C(=O)CCSC[C@@H](C(=O)N[C@@H](CCCNC(=N)N)C(=O)N[C@@H](Cc2c[nH]c3ccccc23)C(=O)O)NC(=O)[C@H](CCCNC(=N)N)NC1=O`, the inhibition constant Ki was 72 nM.

Take `Cc1ccc(C[C@@H]2NC(=O)[C@@H](NC(=O)[C@@H](N)CCCNC(=N)N)CSCCC(=O)N3CN4CN(C3)C(=O)CCSC[C@H](NC(=O)[C@@H]3CCCN3C(=O)[C@H](CC(C)C)NC(=O)[C@H](CCCNC(=N)N)NC2=O)C(=O)N[C@@H](CCCNC(=N)N)C(=O)N[C@@H](CCC(N)=O)C(=O)N[C@@H](CC(C)C)C(=O)N[C@@H](CCCNC(=N)N)C(=O)N[C@H](C(=O)N[C@@H](CCCNC(=N)N)C(=O)N[C@@H](Cc2c[nH]c3ccccc23)C(=O)O)CSCCC4=O)cc1`: the inhibition constant Ki worked out at 39 nM.

In turn, `CC(C)C[C@@H]1NC(=O)[C@H](CCC(N)=O)NC(=O)[C@H](CCCNC(=N)N)NC(=O)[C@@H]2CSCCC(=O)N3CN(CN(C3)C(=O)CCSC[C@H](NC(=O)[C@@H](N)CCCNC(=N)N)C(=O)N[C@@H](Cc3cccc4ccccc34)C(=O)N[C@@H](CCCNC(=N)N)C(=O)N[C@@H](CC(C)C)C(=O)N3CCC[C@H]3C(=O)N2)C(=O)CCSC[C@@H](C(=O)N[C@@H](CCCNC(=N)N)C(=O)N[C@@H](Cc2c[nH]c3ccccc23)C(=O)O)NC(=O)[C@H](CCCNC(=N)N)NC1=O` registered a Ki of 10 nM. Compared with the last compound, the Ki is about 3.9-fold lower.

The compound `CC(C)C[C@@H]1NC(=O)[C@H](CCC(N)=O)NC(=O)[C@H](CCCNC(=N)N)NC(=O)[C@@H]2CSCCC(=O)N3CN(CN(C3)C(=O)CCSC[C@H](NC(=O)[C@@H](N)CCCNC(=N)N)C(=O)N[C@@H](Cc3ccc4ccccc4c3)C(=O)N[C@@H](CCCNC(=N)N)C(=O)N[C@@H](CC(C)C)C(=O)N3CCC[C@H]3C(=O)N2)C(=O)CCSC[C@@H](C(=O)N[C@@H](CCCNC(=N)N)C(=O)N[C@@H](Cc2c[nH]c3ccccc23)C(=O)O)NC(=O)[C@H](CCCNC(=N)N)NC1=O` displayed a Ki of 6 nM.

Consider `CC(C)C[C@@H]1NC(=O)[C@H](CCC(N)=O)NC(=O)[C@H](CCCNC(=N)N)NC(=O)[C@@H]2CSCCC(=O)N3CN(CN(C3)C(=O)CCSC[C@H](NC(=O)[C@@H](N)CCCNC(=N)N)C(=O)N[C@@H](Cc3ccccc3)C(=O)N[C@@H](CCNC(=N)N)C(=O)N[C@@H](CC(C)C)C(=O)N3CCC[C@H]3C(=O)N2)C(=O)CCSC[C@@H](C(=O)N[C@@H](CCCNC(=N)N)C(=O)N[C@@H](Cc2c[nH]c3ccccc23)C(=O)O)NC(=O)[C@H](CCCNC(=N)N)NC1=O` (H-RCF[Agb]LPCRQLRCRW-OH; linker 2-7-12 via TATA), for which the Ki stood at 156 nM.

Take `CCCC[C@@H]1NC(=O)[C@H](CCC(N)=O)NC(=O)[C@H](CCCNC(=N)N)NC(=O)[C@@H]2CSCCC(=O)N3CN(CN(C3)C(=O)CCSC[C@H](NC(=O)[C@@H](N)CCCNC(=N)N)C(=O)N[C@@H](Cc3ccccc3)C(=O)N[C@@H](CCCNC(=N)N)C(=O)N[C@@H](CC(C)C)C(=O)N3CCC[C@H]3C(=O)N2)C(=O)CCSC[C@@H](C(=O)N[C@@H](CCCNC(=N)N)C(=O)N[C@@H](Cc2c[nH]c3ccccc23)C(=O)O)NC(=O)[C@H](CCCNC(=N)N)NC1=O`: the Ki turned out to be 30.6 nM.

Compound `CC(C)C[C@@H]1NC(=O)[C@H](CCC(N)=O)NC(=O)[C@H](CCCNC(=N)N)NC(=O)[C@@H]2CSCCC(=O)N3CN(CN(C3)C(=O)CCSC[C@H](NC(=O)[C@@H](N)CCCCN)C(=O)N[C@@H](Cc3ccccc3)C(=O)N[C@@H](CCCNC(=N)N)C(=O)N[C@@H](CC(C)C)C(=O)N3CCC[C@H]3C(=O)N2)C(=O)CCSC[C@@H](C(=O)N[C@@H](CCCNC(=N)N)C(=O)O)NC(=O)[C@H](CCCNC(=N)N)NC1=O` (H-KCFRLPCRQLRCR-OH; linker 2-7-12 via TATA) yielded a Ki of 9 nM.

In turn, `CC[C@H](C)[C@@H]1NC(=O)[C@H](CCCNC(=N)N)NC(=O)[C@H](Cc2ccccc2)NC(=O)[C@@H](NC(=O)[C@@H](N)CCCNC(=N)N)CSCCC(=O)N2CN3CN(C2)C(=O)CCSC[C@H](NC(=O)[C@@H]2CCCN2C1=O)C(=O)N[C@@H](CCCNC(=N)N)C(=O)N[C@@H](CCC(N)=O)C(=O)N[C@@H](CC(C)C)C(=O)N[C@@H](CCCNC(=N)N)C(=O)N[C@H](C(=O)N[C@@H](CCCNC(=N)N)C(=O)N[C@@H](Cc1c[nH]c2ccccc12)C(=O)O)CSCCC3=O` (H-RCFRIPCRQLRCRW-OH; linker 2-7-12 via TATA) showed a Ki of 890 nM.

Turning to `CC(C)C[C@@H]1NC(=O)[C@H](CCC(N)=O)NC(=O)[C@H](CCCNC(=N)N)NC(=O)[C@@H]2CSCCC(=O)N3CN(CN(C3)C(=O)CCSC[C@H](NC(=O)[C@@H](N)CCCNC(=N)N)C(=O)N[C@@H](CCc3ccccc3)C(=O)N[C@@H](CCCNC(=N)N)C(=O)N[C@@H](CC(C)C)C(=O)N3CCC[C@H]3C(=O)N2)C(=O)CCSC[C@@H](C(=O)N[C@@H](CCCNC(=N)N)C(=O)N[C@@H](Cc2c[nH]c3ccccc23)C(=O)O)NC(=O)[C@H](CCCNC(=N)N)NC1=O`, the inhibition constant Ki turned out to be 366 nM.

As to `CC(C)C[C@@H]1NC(=O)[C@H](CCC(N)=O)NC(=O)[C@H](CCCNC(=N)N)NC(=O)[C@@H]2CSCCC(=O)N3CN(CN(C3)C(=O)CCSC[C@H](NC(=O)[C@@H](N)CCCNC(=N)N)C(=O)N[C@@H](Cc3c[nH]c4ccc(O)cc34)C(=O)N[C@@H](CCCNC(=N)N)C(=O)N[C@@H](CC(C)C)C(=O)N3CCC[C@H]3C(=O)N2)C(=O)CCSC[C@@H](C(=O)N[C@@H](CCCNC(=N)N)C(=O)N[C@@H](Cc2c[nH]c3ccccc23)C(=O)O)NC(=O)[C@H](CCCNC(=N)N)NC1=O`, the affinity corresponds to a Ki of 94 nM.

As for `CC(C)CC[C@@H]1NC(=O)[C@H](CCCNC(=N)N)NC(=O)[C@H](Cc2ccccc2)NC(=O)[C@@H](NC(=O)[C@@H](N)CCCNC(=N)N)CSCCC(=O)N2CN3CN(C2)C(=O)CCSC[C@H](NC(=O)[C@@H]2CCCN2C1=O)C(=O)N[C@@H](CCCNC(=N)N)C(=O)N[C@@H](CCC(N)=O)C(=O)N[C@@H](CC(C)C)C(=O)N[C@@H](CCCNC(=N)N)C(=O)N[C@H](C(=O)N[C@@H](CCCNC(=N)N)C(=O)N[C@@H](Cc1c[nH]c2ccccc12)C(=O)O)CSCCC3=O` (H-RCFR[hLeu]PCRQLRCRW-OH; linker 2-7-12 via TATA), the inhibitory constant (Ki) turned out to be 2700 nM. Against the preceding compound, the Ki is about 29-fold higher.
